# pIC50: −log10 of the molar value.
# How the values were obtained:
# [1] = test system: adenocarcinomic human alveolar basal epithelial cell line A549; test: CellTiter-Glo cell survival assay of anticancer agents (Experimental Example 8); format: cell-based; conditions: for pIC50: Homo sapiens, A549, cell survival assay by luminescence, read-out: 50% inhibitory concentration
# Experimental: Adenocarcinomic human alveolar basal epithelial cell line A549 (manufactured by DS PHARMA BIOMEDICAL CO., LTD.) was suspended in the above-mentioned medium composition containing low-molecular agar at 11,000 cells/mL. The above-mentioned cell suspension was dispensed to the wells of a 96 well flat bottom ultra-low attachment surface microplate (manufactured by Corning Incorporated, #3474) at 90 μL per 1 well. The plate was stood in a CO2 incubator (37° C., 5% CO2) overnight. […] Successively, the plate was further cultured in a standing state in a CO2 incubator (37° C., 5% CO2) for 7 days. As a negative control, a medium composition containing 10 (v/v) % FBS alone in DMEM (manufactured by Wako Pure Chemical Industries, Ltd.) was prepared. […] A549 cells were also suspended in each of the negative control and comparison control medium compositions, the negative control was dispensed to a 96 well flat bottom attachment surface microplate (manufactured by Corning Incorporated, #3585) and the comparison control was dispensed to a 96 well flat bottom ultra-low attachment surface microplate (manufactured by Corning Incorporated, #3474). […] CellTiter-Glo Luminescent Cell Viability Assay (manufactured by Promega) (100 μL) was added to the low-molecular agar-containing culture medium and each cell culture medium of the negative control and comparison control, the mixture was stood for 10 min at room temperature, and the amount of luminescence was measured by a microplate reader (“FlexStation 3”, manufactured by Molecular Devices) and according to the protocol recommended by Promega. The amount of luminescence of the medium alone was subtracted, whereby the number of viable cells was measured.
# [2] = test system: adenocarcinomic human alveolar basal epithelial cell line A549; test: High content analysis of anti-cancer agent by cell image analysis (Experimental Example 5); format: cell-based; conditions: 0.03 (w/v)% low-molecular agar medium; for average cell number per sphere / number of average spheres per 10 mm^2 / projected area: 10 days
# Experimental: By a method similar to the preparation method of medium composition in Analysis Example 1, a medium composition containing 10 (v/v) % FBS, and 0.03 (w/v) % of low-molecular agar or agar for general use in DMEM (manufactured by Wako Pure Chemical Industries, Ltd.) was prepared. Paclitaxel (manufactured by Wako Pure Chemical Industries, Ltd.) was further added to a final concentration of 0.001 μM, 0.01 μM or 0.1 μM. Successively, adenocarcinomic human alveolar basal epithelial cell line A549 (manufactured by DS PHARMA BIOMEDICAL CO., LTD.) was seeded in the above-mentioned medium composition containing low-molecular agar at 5,000 cells/mL, and dispensed to the wells of a 96 well flat bottom ultra-low attachment surface microplate (manufactured by Corning Incorporated, #3474) at 100 μL per 1 well. Successively, the plate was cultured in a standing state in a CO2 incubator (37° C., 5% CO2) for 10 days.
# Then, a solution of […] of Hoechst 33342 (manufactured by Invitrogen) in DMEM (phenol red, L-glutamine free) (manufactured by Wako Pure Chemical Industries, Ltd.) was prepared, and added, at 10 μL per 1 well, to the above-mentioned culture after static culture for 10 days, and the mixture was stood in a CO2 incubator (37° C., 5% CO2) for 45 min. Successively, a solution of 20 μg/mL Propidium Iodide (manufactured by BIOMOL) in DMEM (phenol red, L-glutamine free) (manufactured by Wako Pure Chemical Industries, Ltd.) was prepared and added at 10 μL per 1 well. The plate was centrifuged at 1,500 rpm for 10 min, and high content analysis was performed by cell image analysis using a cell imaging apparatus (“ArrayScan VTI HCS Reader”, manufactured by Thermo Fisher Scientific). At that time, observation was performed with 10 fields of view per well using a ×4 objective lens, cell outline and cell nucleus were detected from Hoechst33342 fluorescence image, and dead cells were detected from propidium iodide fluorescence image. In addition, 50% inhibitory concentration (nM) of paclitaxel by high content analysis was calculated with the number of constituent cells when the anticancer agent was added at the maximum concentration as 100% inhibition rate of sphere formation.
# The observed images (area per 1 field: 1 mm^2) of A549 cells cultured for 10 days in the medium composition of the present invention containing low-molecular agar, negative control and comparison control (medium composition containing deacylated gellan gum) by a cell imaging apparatus are shown in FIG. 8. In addition, number of constituent cells of A549 cell spheres (average cell number per sphere), sphere number (average sphere number per 10 mm^2), projected area of sphere (size) (μm^2), obtained from the cell imaging analysis, are shown in Table 12. As for the negative control and comparison control, the relative cell number when the amount of luminescence without addition of the anticancer agent is 1 was determined from the measurement results of the surviving cell number using the intracellular ATP as an index, and shown in Table 13. Furthermore, the 50% inhibitory concentration (nM) of paclitaxel calculated from the amount of luminescence based on intracellular ATP and high content analysis are shown in Table 14.
structure (smiles),measurement,setting,value
"CC(=O)O[C@H]1C(=O)[C@@]2(C)[C@H]([C@H](OC(=O)c3ccccc3)[C@]3(O)C[C@H](OC(=O)[C@H](O)[C@@H](NC(=O)c4ccccc4)c4ccccc4)C(C)=C1C3(C)C)[C@]1(OC(C)=O)CO[C@@H]1C[C@@H]2O [paclitaxel, Paclitaxel]",pIC50,[1]; comparison control (0.015 (w/v)% deacylated gellan gum medium),8.35
same,pIC50,[1]; low-molecular agar-containing medium,8.31
same,pIC50,"[1]; negative control (DMEM, 10% FBS, attachment surface plate)",8.39
same,relative cell number (no anticancer agent = 100),"[1]; agent 0.001 μM, comparison control (0.015 (w/v)% deacylated gellan gum medium)",99.9
same,relative cell number (no anticancer agent = 100),"[1]; agent 0.001 μM, low-molecular agar-containing medium",102.4
same,relative cell number (no anticancer agent = 100),"[1]; agent 0.001 μM, negative control (DMEM, 10% FBS, attachment surface plate)",100.1
same,relative cell number (no anticancer agent = 100),"[1]; agent 0.01 μM, comparison control (0.015 (w/v)% deacylated gellan gum medium)",23.5
same,relative cell number (no anticancer agent = 100),"[1]; agent 0.01 μM, low-molecular agar-containing medium",27
same,relative cell number (no anticancer agent = 100),"[1]; agent 0.01 μM, negative control (DMEM, 10% FBS, attachment surface plate)",18.8
same,relative cell number (no anticancer agent = 100),"[1]; agent 0.1 μM, comparison control (0.015 (w/v)% deacylated gellan gum medium)",10.8
same,relative cell number (no anticancer agent = 100),"[1]; agent 0.1 μM, low-molecular agar-containing medium",12.1
same,relative cell number (no anticancer agent = 100),"[1]; agent 0.1 μM, negative control (DMEM, 10% FBS, attachment surface plate)",5.5
same,pIC50,"[2]; Homo sapiens, A549, high content analysis by cell image analysis, number of constituent cells, read-out: paclitaxel 50% inhibitory concentration",8.72
same,average cell number per sphere,[2]; paclitaxel 0.001 μM,5.353
same,number of average spheres per 10 mm^2,[2]; paclitaxel 0.001 μM,39.33
same,projected area,[2]; paclitaxel 0.001 μM,1161 μm^2
same,average cell number per sphere,[2]; paclitaxel 0.01 μM,1.52
same,number of average spheres per 10 mm^2,[2]; paclitaxel 0.01 μM,18
same,projected area,[2]; paclitaxel 0.01 μM,578 μm^2
same,average cell number per sphere,[2]; paclitaxel 0.1 μM,1.165
same,number of average spheres per 10 mm^2,[2]; paclitaxel 0.1 μM,6.333
same,projected area,[2]; paclitaxel 0.1 μM,402 μm^2
